# Experimental data: patent US20260207720A1, “COMPOSITIONS AND METHODS FOR TREATING FUNGAL INFECTIONS” (MUCPharm Pty Ltd, priority 2022, published 2026)
# What was measured:
# Assay in all cases: Susceptibility assay of antifungals with BromAc (Example 4)
# Format in all cases: cell-based
# [1] = test system: Fusarium; conditions: antifungal in combination with BromAc (5 mg/ml Acetylcysteine+12.5 μg/ml Bromelain) vs alone
# Method: (§1) The in vitro antifungal properties of Bromelain, Acetylcysteine, BromAc, Amphotericin B, Isavuconazole, Fluconazole and Posaconazole were determined using a broth microdilution method in round bottom 96 well plates in accordance with standard procedures defined by the Clinical Laboratory Standards Institute (CLSI).
# (§2) Unless otherwise described, fungal cultures were grown on potato dextrose agar plates at 35° C. until mature (appearance of conidia) and used to prepare suspensions in sterile water. Suspensions were diluted in RPMI 1:60. These suspensions were then added in equal volume to solutions containing the candidate species described above and incubated at 35° C. for 24 hr. Plates were then analysed for fungal growth inhibition and MIC values determined.
# (§3) BromAc (5 mg/ml Acetylcysteine+12.5 μg/ml Bromelain) was used in combination with Amphotericin B, Isavuconazole, Posaconazole and Fluconazole. The MIC values of these four antifungal agents against the fungus described below were calculated and compared with their corresponding MIC values in the presence of BromAc, using the standard susceptibility assays described above.
# (§4) The fungal strains set out in Table 2, all of which were sourced from a range of clinical isolates from Australian hospitals, were used in these experiments to gain a further understanding of the efficacy of BromAc in combination with Amphotericin B, Isavuconazole, Posaconazole and Fluconazole.
# [2] = test system: Candida parapslosis; conditions: for increase in sensitivity: Candida parapsilosis, antifungal with BromAc; for Observed inhibitory effect: Candida parapslosis, antifungal in combination with BromAc (5 mg/ml Acetylcysteine+12.5 μg/ml Bromelain) vs alone
# Method: as §1, §2, §3, §4
# [3] = test system: Lomentospora; conditions: antifungal in combination with BromAc (5 mg/ml Acetylcysteine+12.5 μg/ml Bromelain) vs alone
# Method: as §1, §2, §3, §4
# [4] = test system: Aspergillus; conditions: antifungal in combination with BromAc (5 mg/ml Acetylcysteine+12.5 μg/ml Bromelain) vs alone
# Method: as §1, §2, §3, §4
# [5] = test system: Licthemia; conditions: antifungal in combination with BromAc (5 mg/ml Acetylcysteine+12.5 μg/ml Bromelain) vs alone
# Method: as §1, §2, §3, §4
# [6] = test system: Mucor circinelloides; conditions: for Observed inhibitory effect: antifungal in combination with BromAc (5 mg/ml Acetylcysteine+12.5 μg/ml Bromelain) vs alone; for isolates with increased sensitivity: antifungal with BromAc
# Method: as §1, §2, §3, §4
# [7] = test system: Candida kruseii; conditions: antifungal in combination with BromAc (5 mg/ml Acetylcysteine+12.5 μg/ml Bromelain) vs alone
# Method: as §1, §2, §3, §4
# [8] = test system: Candida glabrata; conditions: for Observed inhibitory effect: antifungal in combination with BromAc (5 mg/ml Acetylcysteine+12.5 μg/ml Bromelain) vs alone; for isolates with more than a 10× increase in sensitivity: antifungal with BromAc
# Method: as §1, §2, §3, §4
SMILES,Observed inhibitory effect [1],increase in sensitivity [2],Observed inhibitory effect [2],Observed inhibitory effect [3],Observed inhibitory effect [4],Observed inhibitory effect [5],Observed inhibitory effect [6],isolates with increased sensitivity [6],Observed inhibitory effect [7],Observed inhibitory effect [8],isolates with more than a 10× increase in sensitivity [8]
C[C@@H]1[C@H](O)[C@@H](C)/C=C/C=C/C=C/C=C/C=C/C=C/C=C/[C@H](O[C@@H]2O[C@H](C)[C@@H](O)[C@H](N)[C@@H]2O)C[C@@H]2O[C@](O)(C[C@@H](O)C[C@@H](O)[C@H](O)CC[C@@H](O)C[C@@H](O)CC(=O)O[C@H]1C)C[C@H](O)[C@H]2C(=O)O [Amphotericin B],No effect,~10 ×,Strong (Strong = 5-10x (or greater) inhibitory effect),No effect,No effect,Moderate (Moderate = 1-5x inhibitory effect),Strong (Strong = 5-10x (or greater) inhibitory effect),2 of 2,Strong (Strong = 5-10x (or greater) inhibitory effect),Strong (Strong = 5-10x (or greater) inhibitory effect),5 of 5
CC[C@@H]([C@H](C)O)n1ncn(-c2ccc(N3CCN(c4ccc(OC[C@@H]5CO[C@@](Cn6cncn6)(c6ccc(F)cc6F)C5)cc4)CC3)cc2)c1=O [Posaconazole],No effect,more than 10 ×,Strong (Strong = 5-10x (or greater) inhibitory effect),No effect,Moderate (Moderate = 1-5x inhibitory effect),Moderate (Moderate = 1-5x inhibitory effect),Strong (Strong = 5-10x (or greater) inhibitory effect),1 of 2,Strong (Strong = 5-10x (or greater) inhibitory effect),Strong (Strong = 5-10x (or greater) inhibitory effect),5 of 5
